Each molecule was assayed against T1, Autotaxin enzyme (ATX) (Homo sapiens, UniProt Q13822) (assay: In vitro ATX assay (enzymatic ATX inhibition, LPC 14:0 substrate, choline oxidase/HRP absorbance readout)). Conditions: 0.3 mM LPC 14:0, 37° C., 4 hours, absorbance 555 nm.
T1 construct: purchased Echelon Biosciences, Inc. E-4000
Assay type: biochemical
Method: • Assay buffer: 100 mM Tris-HCl, pH 9.0, 500 mM NaCl, 5 mM MgCl2, 30 μM CoCl2, 0.05% Triton X-100 • Assay buffer II: 4.5 mM 4-AAP, 2.7 mM TOOS, 21.2 U/mL HRP, 3 U/mL CO, In 50 mM Tris-HCl pH 8.0, 4.5 mM MgCl2
A compound preparation plate (Nunc 249944) was prepared by adding 30 mM stock solution (in DMSO) of test compound and performing a serial full-log dilution down to 30 nM. Two μL/well were transferred from the first compound prep plate to a compound dilution plate (Corning, 3641) and 198 μL assay buffer I was added for a […].
A 10 ng/mL solution of ATX was prepared by diluting in assay buffer I, and 80 μL/well were added to the assay plate (Corning, 3641); negative control wells contained 80 μL/well assay buffer I only (no ATX). Ten μL/well from the compound dilution plate (containing serially diluted test compound or DMSO) were added to the assay plate, which was then incubated at 37° C. for 15 minutes. A solution of LPC 14:0 was prepared in assay buffer I at 3 mM and 10 μl/well were added to the assay plate, for a final concentration of 0.3 mM LPC, and returned to 37° C. incubator for 4 hours. After 4 hour incubation, 100 μL/well of assay buffer II was added to all wells of the assay plate. The plate was incubated at RT for 15 minutes, prior to reading on FlexStation in absorbance mode, 555 nm. Results in the enzymatic ATX inhibition assay are provided for compounds of formula (I). An IC50 value of “A” is less than 100 nM, “B” is equal to or greater than 100 nM but less than 1 μM, “C” is equal to or greater than 1 μM.

Q: For `O=C(c1ccc(NC2Cc3ccc(Cl)cc3C2)nc1)N1CCC12COC2` (stereo not drawn) [Example 78, (6-((5-Chloro-2,3-dihydro-1H-inden-2-yl)amino)pyridin-3-yl)(6-oxa-1-azaspiro[3.3]heptan-1-yl)methanone], which IC50 is on record?
A: 0.1 to 1 µM

Q: With `O=C(c1cnc(NCc2cc(OC(F)(F)F)cc(C3CC3)c2)nc1)N1CCC12CCC2` [Example 79, (2-((3-Cyclopropyl-5-(trifluoromethoxy)benzyl)amino)pyrimidin-5-yl)(1-azaspiro[3.3]heptan-1-yl)methanone] as the molecule, how does the IC50 read?
A: < 0.1 µM

Q: `O=C(c1cnc(NCc2cc(OC(F)(F)F)cc(C3CC3)c2)nc1)N1CCC12COC2` [Example 80, (2-((3-cyclopropyl-5-(trifluoromethoxy)benzyl)ami-no)pyrimidin-5-yl)(6-oxa-1-azaspiro[3.3]heptan-1-yl)-methanone] was tested. Which IC50 did it give?
A: < 0.1 µM

Q: Which IC50 does the source give for `O=C(c1cnc(NCc2cc(OC(F)(F)F)cc(C3CC3)c2)nc1)N1CCC1` [Example 81, azetidin-1-yl(2-((3-cyclopropyl-5-(trifluoro-methoxy)benzyl)amino)-pyrimidin-5-yl)methanone] here?
A: < 0.1 µM

Q: For `O=C(c1cnc(NCc2cc(OC(F)(F)F)cc(C3CC3)c2)nc1)N1CC2(COC2)C1` [Example 82, (2-((3-cyclopropyl-5-(trifluoromethoxy)benzyl)ami-no)pyrimidin-5-yl)(2-oxa-6-azaspiro[3.3]heptan-6-yl)methanone], which IC50 is on record?
A: 0.1 to 1 µM

Q: For `O=C(c1cnc(NCc2cc(OC(F)(F)F)cc(C3CC3)c2)nc1)N1CC(O)C1` [Example 83, (2-((3-cyclopropyl-5-(trifluoromethoxy)benzyl)ami-no)pyrimidin-5-yl)(3-hydroxyazetidin-1-yl)-methanone], which IC50 is on record?
A: 0.1 to 1 µM

Q: For `CC(C)(O)C1CN(C(=O)c2cnc(NCc3cc(OC(F)(F)F)cc(C4CC4)c3)nc2)C1` [Example 84, (2-((3-cyclopropyl-5-(trifluoromethoxy)benzyl)ami-no)pyrimidin-5-yl)(3-(2-hydroxypropan-2-yl)azetidin-1-yl)methanone], which IC50 is on record?
A: 0.1 to 1 µM

Q: With `O=C(c1cnc(NCc2cc(OC(F)(F)F)cc(C3CC3)c2)nc1)N1CC(F)C1` [Example 85, (2-((3-cyclopropyl-5-(trifluoromethoxy)benzyl)ami-no)pyrimidin-5-yl)(3-fluoroazetidin-1-yl)-methanone] as the molecule, how does the IC50 read?
A: < 0.1 µM

Q: For `O=C(c1cnc(NCc2cc(OC(F)(F)F)cc(C3CC3)c2)nc1)N1CC(F)(F)C1` [Example 86, (2-((3-cyclopropyl-5-(trifluoromethoxy)benzyl)ami-no)pyrimidin-5-yl)(3,3-difluroazetidin-1-yl)-methanone], which IC50 is on record?
A: 0.1 to 1 µM

Q: How did the IC50 turn out when `CC1(O)CN(C(=O)c2cnc(NCc3cc(OC(F)(F)F)cc(C4CC4)c3)nc2)C1` [Example 87, (2-((3-cyclopropyl-5-(trifluoromethoxy)benzyl)ami-no)pyrimidin-5-yl)(3-hydroxy-3-methylazetidin-1-yl)methanone] was run?
A: 0.1 to 1 µM

Q: Which IC50 does the source give for `CS(=O)(=O)C1CN(C(=O)c2cnc(NCc3cc(OC(F)(F)F)cc(C4CC4)c3)nc2)C1` [Example 88, (2-((3-cyclopropyl-5-(trifluoromethoxy)benzyl)ami-no)pyrimidin-5-yl)(3-(methylsulfonyl)azetidin-1-yl)methanone] here?
A: 0.1 to 1 µM

Q: For `CC1(C)CCN1C(=O)c1cnc(NCc2cc(OC(F)(F)F)cc(C3CC3)c2)nc1` [Example 89, (2-((3-cyclopropyl-5-(trifluoromethoxy)benzyl)ami-no)pyrimidin-5-yl)(2,2-dimethylazetidin-1-yl)methanone], which IC50 is on record?
A: < 0.1 µM

Q: How did the IC50 turn out when `O=C(c1cnc(NCc2cc(OC(F)(F)F)cc(C3CC3)c2)nc1)N1CCc2cccnc21` [Example 90, (2-((3-cyclopropyl-5-(trifluoromethoxy)benzyl)ami-no)pyrimidin-5-yl)(2,3-dihydro-1H-pyrrolo[2,3-b]pyridin-1-yl)methanone] was run?
A: 0.1 to 1 µM

Q: How did the IC50 turn out when `O=C(c1cnc(NCc2cc(OC(F)(F)F)cc(C3CC3)c2)nc1)N1CCc2cnccc21` [Example 91, (2-((3-cyclopropyl-5-(trifluoromethoxy)benzyl)ami-no)pyrimidin-5-yl)(2,3-dihydro-1H-pyrrolo[3,2-c]pyridin-1-yl)methanone] was run?
A: 0.1 to 1 µM

Q: How did the IC50 turn out when `CC(C)(C)OC(=O)N1CC2(CCN2C(=O)c2cnc(NCc3cc(OC(F)(F)F)cc(C4CC4)c3)nc2)C1` [Example 92, tert-butyl 1-(2-((3-cyclopropyl-5-(trifluoro-methoxy)benzyl)amino)py-rimidine-5-carbonyl)-1,6-diazaspiro[3.3]heptane-6-carboxylate] was run?
A: < 0.1 µM

Q: For `CC1CC(C)N1C(=O)c1cnc(NCc2cc(OC(F)(F)F)cc(C3CC3)c2)nc1` (stereo not drawn) [Example 93, (2-((3-cyclopropyl-5-(trifluoromethoxy)benzyl)ami-no)pyrimidin-5-yl)(2,4-dimethylazetidin-1-yl)methanone], which IC50 is on record?
A: < 0.1 µM

Q: How did the IC50 turn out when `COC[C@@H]1CCCN1C(=O)c1cnc(NCc2cc(OC(F)(F)F)cc(C3CC3)c2)nc1` [Example 94, (S)-(2-((3-cyclopropyl-5-(trifluoromethoxy)benzyl)ami-no)pyrimidin-5-yl)(2-(methoxymethyl)pyrrolidin-1-yl)methanone] was run?
A: 0.1 to 1 µM

Q: How did the IC50 turn out when `COC[C@H]1CCCN1C(=O)c1cnc(NCc2cc(OC(F)(F)F)cc(C3CC3)c2)nc1` [Example 95, (R)-(2-((3-cyclopropyl-5-(trifluoromethxoy)benzyl)ami-no)pyrimidin-5-yl)(2-(methoxymethyl)pyrrolidin-1-yl)methanone] was run?
A: 0.1 to 1 µM

Q: Which IC50 does the source give for `O=C(c1cnc(NCc2cc(OC(F)(F)F)cc(C3CC3)c2)nc1)N1CCCC12COC2` [Example 96, (2-((3-cyclopropyl-5-(trifluoromethoxy)benzyl)ami-no)pyrimidin-5-yl)(2-oxa-5-azaspiro[3.4]octan-5-yl)methanone] here?
A: < 0.1 µM

Q: `O=C(c1cnc(NCc2cc(OC(F)(F)F)cc(C3CC3)c2)nc1)N1CCC12CCOC2` (stereo not drawn) [Example 97, (2-((3-cyclopropyl-5-(trifluoromethoxy)benzyl)ami-no)pyrimidin-5-yl)(6-oxa-1-azaspiro[3.4]octan-1-yl)methanone] was tested. Which IC50 did it give?
A: < 0.1 µM

Q: For `O=C(c1cnc(NCc2cc(OC(F)(F)F)cc(C3CC3)c2)nc1)N1CCc2ccncc21` [Example 98, (2-((3-cyclopropyl-5-(trifluoromethoxy)benzyl)ami-no)pyrimidin-5-yl)(2,3-dihydro-1H-pyrrolo[2,3-c]pyridin-1-yl)methanone], which IC50 is on record?
A: < 0.1 µM

Q: For `COCC1CN(C(=O)c2cnc(NCc3cc(OC(F)(F)F)cc(C4CC4)c3)nc2)C1` [Example 99, (2-((3-cyclopropyl-5-(trifluoromethoxy)benzyl)ami-no)pyrimidin-5-yl)(3-(methoxymethyl)azetidin-1-yl)methanone], which IC50 is on record?
A: 0.1 to 1 µM

Q: For `CN(C)CC1CN(C(=O)c2cnc(NCc3cc(OC(F)(F)F)cc(C4CC4)c3)nc2)C1` [Example 100, (2-((3-cyclopropyl-5-(trifluoromethoxy)benzyl)ami-no)pyrimidin-5-yl)(3-((dimethylamino)methyl)azeti-din-1-yl)methanone], which IC50 is on record?
A: 0.1 to 1 µM

Q: How did the IC50 turn out when `O=C(c1cnc(NCc2cc(OC(F)(F)F)cc(C3CC3)c2)nc1)N1CCC12CCOCC2` [Example 101, (2-((3-cyclopropyl-5-(trifluoromethoxy)benzyl)ami-no)pyrimidin-5-yl)(7-oxa-1-azaspiro[3.5]nonan-1-yl)methanone] was run?
A: < 0.1 µM
